Test system: Normal human coronary artery smooth muscle cells (HCASMC)
Test: Measurement of responsiveness to CGRP (intracellular cAMP EIA after 0.5 nM CGRP stimulation)
Assay type: cell-based
Details: lignan at predetermined concentrations during 60 min PDI infiltration and 15 min 0.5 nM CGRP stimulation, control = 0.5 nM CGRP only (100% = 1189.3 fmol/well), Dunnett's test, N = 3, Fig. 1
Description: Normal human coronary artery smooth muscle cells (HCASMC; Kurabo Industries, Ltd., cell lot #01272) were cultured in a growth medium (product obtained by adding 25 ml of FBS, 0.5 ml of hEGF, 0.5 ml of hFGF-B, 0.5 ml of insulin and 0.5 ml of an antibacterial agent to 500 ml of basal medium HuMedia-SB2; Kurabo Industries, Ltd). 0.025% Trypsin/0.01% EDTA was used for the passage. […]
The cells were washed twice with a basal medium (HuMedia-SB2; Kurabo Industries, Ltd.) containing phosphodiesterase inhibitors (PDI), IBMX (3-isobutyl-1-methylxanthine, 500 µM, Sigma-Aldrich Co.), Ro-20-1724 (100 µM; Wako Pure Chemical Industries, Ltd.), and a lignan compound shown below at a predetermined concentration. […] Termination of the reaction was carried out by adding a lysis buffer attached to a cAMP analysis EIA kit (cAMP EIA (non-acetylation); GE Healthcare Biosciences Corp.) to the cells, and the intracellular cAMP concentration ([cAMP]i) was measured according to the method described in the manual. […]
HCASMC (Kurabo Industries, Ltd., cell lot #01272) was prepared under the same conditions as those used in Example 1. […] Thereafter, the cellular responsiveness to CGRP was measured by the same method as that used in Example 1.

SMILES	cellular responsiveness to CGRP (Improve Index, percentage of [cAMP]i)
COc1cc([C@@H]2c3cc4c(c(OC)c3C[C@H]3COC(=O)[C@@H]32)OCO4)cc(OC)c1OC [TD-1]	significantly promoted the cellular responsiveness to CGRP in a concentration-dependent manner
COc1cc([C@@H]2c3cc4c(cc3C[C@H]3COC(=O)[C@@H]32)OCO4)cc(OC)c1OC [TD-2]	significantly promoted the cellular responsiveness to CGRP in a concentration-dependent manner
